Here are results for 26 compounds from US9938273B2 (Plexxikon Inc., priority 2015, dated 2018).

The target in this assay is T1, BA/F3-FLT3-ITD + D835Y cells (Homo sapiens, UniProt P36888, D835Y, cells depend on it, form not given).
T1 sequence (P36888 1-993 D835Y): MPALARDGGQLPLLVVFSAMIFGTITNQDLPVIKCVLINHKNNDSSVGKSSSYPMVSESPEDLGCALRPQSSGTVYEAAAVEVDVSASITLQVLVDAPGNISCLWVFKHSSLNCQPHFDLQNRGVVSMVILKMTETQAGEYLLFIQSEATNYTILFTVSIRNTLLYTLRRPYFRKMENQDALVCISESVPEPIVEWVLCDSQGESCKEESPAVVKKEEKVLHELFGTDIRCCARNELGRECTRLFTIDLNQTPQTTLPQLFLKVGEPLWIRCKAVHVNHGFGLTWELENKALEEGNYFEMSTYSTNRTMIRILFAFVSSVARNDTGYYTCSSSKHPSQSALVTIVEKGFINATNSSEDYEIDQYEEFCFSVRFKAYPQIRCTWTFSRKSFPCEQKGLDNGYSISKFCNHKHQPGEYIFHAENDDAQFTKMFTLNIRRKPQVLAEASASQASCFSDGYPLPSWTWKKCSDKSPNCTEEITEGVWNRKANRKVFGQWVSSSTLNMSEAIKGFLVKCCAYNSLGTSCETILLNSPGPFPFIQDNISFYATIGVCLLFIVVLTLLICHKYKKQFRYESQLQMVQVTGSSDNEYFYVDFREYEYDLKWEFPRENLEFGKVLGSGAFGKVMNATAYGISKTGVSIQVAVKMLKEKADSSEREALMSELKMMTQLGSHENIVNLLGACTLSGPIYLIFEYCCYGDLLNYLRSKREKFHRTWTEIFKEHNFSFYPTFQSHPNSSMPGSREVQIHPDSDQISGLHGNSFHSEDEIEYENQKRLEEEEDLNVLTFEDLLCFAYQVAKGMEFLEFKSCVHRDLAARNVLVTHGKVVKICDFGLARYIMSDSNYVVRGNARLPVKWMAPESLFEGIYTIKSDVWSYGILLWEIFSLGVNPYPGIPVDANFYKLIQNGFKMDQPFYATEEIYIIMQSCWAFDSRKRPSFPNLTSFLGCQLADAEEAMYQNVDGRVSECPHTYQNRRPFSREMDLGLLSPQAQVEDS
The assay is described as follows: Cell proliferation assay (CellTiter-Glo), engineered BA/F3 cells. The format is cell-based, murine. As to conditions: BaF3 FLT3 ITD/D835Y cells, 3d-Growth; read-out: BaF3_FLT3 ITD/D835Y 3d-Growth: IC50. The essentials:
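MOLM-14 AML cells (endogenous FLT3 ITD, AC220-selected D835Y or F691L variants) or murine Ba/F3 expressing full-length FLT3 ITD/D835Y, without IL-3 for FLT3 dependence, 1×10^4 cells/well. Eight-point 1:3 series from 1 μM final, 0.2% DMSO, 3 days at 37 °C. CellTiter-Glo luminescence (ATP) gave IC50.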

For the compound `CC(=O)NC1CCN(C(=O)c2cccc(-c3cnc4[nH]c(-c5ccc(F)cc5)cc4c3)c2)CC1` [Compound P-0001, N-[1-[3-[2-(4-fluorophenyl)-1H-pyrrolo[2,3-b]pyridin-5-yl]benzoyl]-4-piperidyl]acetamide], the GI50 lay in the range of 0.0001 to 10 µM.
Then `CON(C)C(=O)c1cccc(-c2cnc3[nH]c(-c4ccccc4)cc3c2)c1` [Compound P-0002, N-methoxy-N-methyl-3-(2-phenyl-1H-pyrrolo[2,3-b]pyridin-5-yl)benzamide], with 0.0001 to 10 µM; and `NC1CN(C(=O)c2n[nH]c3ccc(-c4cnc5[nH]c(-c6ccccc6)cc5c4)cc23)C1` [Compound P-0029, (3-aminoazetidin-1-yl)-[5-(2-phenyl-1H-pyrrolo[2,3-b]pyridin-5-yl)-1H-indazol-3-yl]methanone], with 0.0001 to 10 µM; and `CNC(=O)C1CCN(C(=O)c2cccc(-c3cnc4[nH]c(-c5ccccc5)cc4c3)n2)CC1` [Compound P-0030, N-methyl-1-[6-(2-phenyl-1H-pyrrolo[2,3-b]pyridin-5-yl)pyridine-2-carbonyl]piperidine-4-carboxamide], with 0.0001 to 10 µM.
Then `CCNC(=O)NC1CCN(C(=O)c2cccc(-c3cnc4[nH]c(-c5ccccc5)cc4c3)n2)CC1` [Compound P-0031, 1-ethyl-3-[1-[6-(2-phenyl-1H-pyrrolo[2,3-b]pyridin-5-yl)pyridine-2-carbonyl]-4-piperidyl]urea], with 0.0001 to 10 µM; and `CS(=O)(=O)NC1CCN(C(=O)c2cccc(-c3cnc4[nH]c(-c5ccccc5)cc4c3)n2)CC1` [Compound P-0032, N-[1-[6-(2-phenyl-1H-pyrrolo[2,3-b]pyridin-5-yl)pyridine-2-carbonyl]-4-piperidyl]methanesulfonamide], with 0.0001 to 10 µM; and `Cc1ccc(-c2cnc3[nH]c(-c4ccccc4)cc3c2)nc1C(=O)N1CCC(N)CC1` [Compound P-0033, (4-amino-1-piperidyl)-[3-methyl-6-(2-phenyl-1H-pyrrolo[2,3-b]pyridin-5-yl)-2-pyridyl]methanone], with 0.0001 to 10 µM.
In the case of `NC1CCN(c2cccc3ccc(-c4cnc5[nH]c(-c6ccccc6)cc5c4)nc23)CC1` [Compound P-0034, 1-[2-(2-phenyl-1H-pyrrolo[2,3-b]pyridin-5-yl)-8-quinolyl]piperidin-4-amine], the GI50 lay in the range of 0.0001 to 10 µM.
Then `Cc1ccc(-c2cnc3[nH]c(-c4ccccc4)cc3c2)cc1C(=O)N1CCC(N)CC1` [Compound P-0035, (4-amino-1-piperidyl)-[2-methyl-5-(2-phenyl-1H-pyrrolo[2,3-b]pyridin-5-yl)phenyl]methanone], with 0.0001 to 10 µM; and `N[C@H]1CCN(C(=O)c2cccc(-c3cnc4[nH]c(-c5ccccc5)cc4c3)c2)C1` [Compound P-0036, [(3S)-3-aminopyrrolidin-1-yl]-[3-(2-phenyl-1H-pyrrolo[2,3-b]pyridin-5-yl)phenyl]methanone], with 0.0001 to 10 µM.
Then `NC1CCN(C(=O)c2cc(-c3cnc4[nH]c(-c5ccccc5)cc4c3)ccn2)CC1` [Compound P-0038, (4-amino-1-piperidyl)-[4-(2-phenyl-1H-pyrrolo[2,3-b]pyridin-5-yl)-2-pyridyl]methanone], with 0.0001 to 10 µM; and `O=C(NC1CCNCC1)c1n[nH]c2ccc(-c3cnc4[nH]c(-c5ccccc5)cc4c3)cc12` [Compound P-0039, 5-(2-phenyl-1H-pyrrolo[2,3-b]pyridin-5-yl)-N-(4-piperidyl)-1H-indazole-3-carboxamide], with 0.0001 to 10 µM.
Then `CNC1CCN(C(=O)c2cccc(-c3cnc4[nH]c(-c5ccccc5)cc4c3)n2)CC1` [Compound P-0041, [4-(methylamino)-1-piperidyl]-[6-(2-phenyl-1H-pyrrolo[2,3-b]pyridin-5-yl)-2-pyridyl]methanone], with 0.0001 to 10 µM; and `NC1CCN(C(=O)c2c[nH]c3ccc(-c4cnc5[nH]c(-c6ccccc6)cc5c4)cc23)CC1` [Compound P-0042, (4-amino-1-piperidyl)-[5-(2-phenyl-1H-pyrrolo[2,3-b]pyridin-5-yl)-1H-indol-3-yl]methanone], with 0.0001 to 10 µM.
Regarding `O=C(c1cccc(-c2cnc3[nH]c(-c4ccccc4)cc3c2)n1)C1CCNCC1` [Compound P-0043, [6-(2-phenyl-1H-pyrrolo[2,3-b]pyridin-5-yl)-2-pyridyl]-(4-piperidyl)methanone], the GI50 fell in the range of 0.0001 to 10 µM.
Then `CNC1CCN(C(=O)c2n[nH]c3ccc(-c4cnc5[nH]c(-c6ccccc6)cc5c4)cc23)CC1` [Compound P-0044, [4-(methylamino)-1-piperidyl]-[5-(2-phenyl-1H-pyrrolo[2,3-b]pyridin-5-yl)-1H-indazol-3-yl]methanone], with 0.0001 to 10 µM; and `O=C(NC1CCNC1)c1cccc(-c2cnc3[nH]c(-c4ccccc4)cc3c2)n1` (centres unmarked) [Compound P-0045, 6-(2-phenyl-1H-pyrrolo[2,3-b]pyridin-5-yl)-N-pyrrolidin-3-yl-pyridine-2-carboxamide], with 0.0001 to 10 µM.
Then `N[C@H]1CCN(C(=O)c2cc(-c3cnc4[nH]c(-c5ccccc5)cc4c3)ccn2)C1` [Compound P-0046, [(3S)-3-aminopyrrolidin-1-yl]-[4-(2-phenyl-1H-pyrrolo[2,3-b]pyridin-5-yl)-2-pyridyl]methanone], with 0.0001 to 10 µM.
Then `NC1CCC(C(=O)N2Cc3c(cccc3-c3cnc4[nH]c(-c5ccccc5)cc4c3)C2=O)C1` (centres unmarked) [Compound P-0047, 2-(3-aminocyclopentanecarbonyl)-4-(2-phenyl-1H-pyrrolo[2,3-b]pyridin-5-yl)isoindolin-1-one], with 0.0001 to 10 µM.
Consider `N[C@H]1CCN(C(=O)c2csc(-c3cnc4[nH]c(-c5ccccc5)cc4c3)n2)C1` [Compound P-0048, [(3S)-3-aminopyrrolidin-1-yl]-[2-(2-phenyl-1H-pyrrolo[2,3-b]pyridin-5-yl)thiazol-4-yl]methanone], for which the GI50 was in the range of 50 to 100 µM.
For the compound `c1ccc(-c2cc3cc(-c4ccc5[nH]nc(NC6CNC6)c5c4)cnc3[nH]2)cc1` [Compound P-0053, N-(azetidin-3-yl)-5-(2-phenyl-1H-pyrrolo[2,3-b]pyridin-5-yl)-1H-indazol-3-amine], the GI50 lay within 0.0001 to 10 µM.
Then `c1ccc(-c2cc3cc(-c4ccc5[nH]nc(NC6CCNCC6)c5c4)cnc3[nH]2)cc1` [Compound P-0056, 5-(2-phenyl-1H-pyrrolo[2,3-b]pyridin-5-yl)-N-(4-piperidyl)-1H-indazol-3-amine], with 0.0001 to 10 µM.
Then `N=C(N)N1CCN(C(=O)c2cccc(-c3cnc4[nH]c(-c5ccccc5)cc4c3)n2)CC1` [Compound P-0057, 4-[6-(2-phenyl-1H-pyrrolo[2,3-b]pyridin-5-yl)pyridine-2-carbonyl]piperazine-1-carboxamidine], with 0.0001 to 10 µM.
For `c1ccc(-c2cc3cc(-c4ccc5[nH]nc(NC6CCNC6)c5c4)cnc3[nH]2)cc1` (centres unmarked) [Compound P-0059, 5-(2-phenyl-1H-pyrrolo[2,3-b]pyridin-5-yl)-N-pyrrolidin-3-yl-1H-indazol-3-amine], the GI50 fell in the range of 0.0001 to 10 µM.
Take `NC1CCCN(C(=O)c2cccc(-c3cnc4[nH]c(-c5ccccc5)cc4c3)n2)C1` (centres unmarked) [Compound P-0067, (3-amino-1-piperidyl)-[6-(2-phenyl-1H-pyrrolo[2,3-b]pyridin-5-yl)-2-pyridyl]methanone]: the GI50 lay in the range of 0.0001 to 10 µM.
Then `O=C(c1cccc(-c2cnc3[nH]c(-c4ccccc4)cc3c2)n1)N1CCC(O)C1` (centres unmarked) [Compound P-0068, (3-hydroxypyrrolidin-1-yl)-[6-(2-phenyl-1H-pyrrolo[2,3-b]pyridin-5-yl)-2-pyridyl]methanone], with 0.0001 to 10 µM.
